Holding throughout (format): biochemical
The target in one experiment is Trk A (Homo sapiens, UniProt P04629). Briefly: HotSpot kinase assay against Trk A. As to conditions: HotSpot 33P assay, ATP 10 μM-30 μM. The procedure:
(§1) Kinase assays were performed using test compounds against a panel of Trk kinases: Trk A; Trk B; and Trk C. Each compound was tested at a concentration of 0.1 μM in single duplicate mode against the three kinases. Compounds were prepared as 10 mM stock solutions in DMSO prior to use in the assay. The control compound, staurosporine, was tested at 10 concentrations with three-fold serial dilution starting at 20 μM. IC50 values and curve fits were obtained using Prism (GraphPad Software). IC50 values were determined for staurosporine for comparison.
(§2) The screening was performed using the “HotSpot” assay platform. The assay measures the conversion of a peptide substrate to ^33P-labelled phosphorylated product. Briefly, specific kinase/substrate pairs along with required cofactors were prepared in reaction buffer. Specifically, the substrate was prepared in reaction buffer (20 mM Hepes, pH 7.5; 10 mM MgCl2; 1 mM EGTA; 0.02% Brij35; 0.02 mg/mL BSA; 0.1 mM Na3VO4; 2 mM DTT; 1% DMSO), followed by delivery of any required cofactor to the resulting substrate solution. The corresponding kinase was delivered into the substrate solution and the reaction mixture was mixed gently. Compound was delivered into the reaction mixture, followed 15-20 min later by addition of a mixture of ATP (Sigma, St. Louis Mo.) and ^33P ATP (specific activity 0.01 μCi/μL final; Perkin Elmer, Waltham, Mass.) to a final concentration of 10 μM-30 μM to initiate the reaction. Reactions were carried out at RT for 120 min, followed by spotting of the reactions onto P81 ion exchange filter paper (Whatman #3698-915; Whatman Inc., Piscataway, N.J.). Unbound phosphate was removed by extensive washing of filters in 0.75% phosphoric acid. […] The percent of enzyme inhibition was calculated based on the percent of remaining kinase activity.

The target of the next experiment is Trk B (Homo sapiens, UniProt Q16620). The experiment in a line: HotSpot kinase assay against Trk B. As to conditions: HotSpot 33P assay, ATP 10 μM-30 μM. The procedure: as §1, §2
The next experiment has as its target Trk C (Homo sapiens, UniProt Q16288). Briefly: HotSpot kinase assay against Trk C. As to conditions: HotSpot 33P assay, ATP 10 μM-30 μM. The procedure: as §1, §2
Another experiment concerns the target T1, activated IR (Homo sapiens, UniProt P06213).
T1 construct: purchased Millipore 14-803
The experiment in a line: In vitro IR enzymatic assay (ADP-Glo). The conditions noted are these: ATP 50 μM; for inhibition at 1 µM: compound 1 μM; for inhibition at 3 µM: compound 3 μM; for inhibition at 30 µM: compound 30 μM. The method, then:
(§3) Inhibition of IGF-1R and IR kinases by compounds described herein were tested. The IC50 values were measured in vitro using an ADP-Glo kinase assay Kit (Promega). For the IGF-1R assay, active recombinant IGF-1R (Millipore #14-802) was used at 1 ng/reaction, the substrate IGF-1R tide (Millipore #12-527) was used at 125 μM and ATP was used at 100 μM. For the IR assay, active recombinant IR (Millipore #14-803) was used at 1 ng/reaction, the substrate Axl tide (Millipore #12-516) was used at 125 μM and ATP at 50 μM. Kinase reactions in both assays were conducted at 30° C. for 20 min with increasing concentrations of the test compounds.
(§4) The assay results as the percent inhibition of binding are presented in Tables B2 and B3 for IGF-1R and IR respectively.
On the technique in general: ADP-Glo first removes unused ATP, then detects ADP through luciferase.

The next experiment deals with T2, activated IGF-1R (Homo sapiens, UniProt P08069).
T2 construct: purchased Millipore 14-802
The experiment in a line: In vitro IGF-1R enzymatic assay (ADP-Glo). As to conditions: ATP 100 μM; for inhibition at 1 µM: compound 1 μM; for inhibition at 3 µM: compound 3 μM; for inhibition at 10 µM: compound 10 μM; for inhibition at 30 µM: compound 30 μM. The method, then: as §3, §4

Among the data in patent US20170137410A1, “FUSED CYCLOALKYL-PYRIMIDINE COMPOUNDS AND USES THEREOF” (Medivation Technologies, Inc., priority 2014, published 2017) are IC50 and inhibition values, retold here.

T2 sequence (P08069 31-1367): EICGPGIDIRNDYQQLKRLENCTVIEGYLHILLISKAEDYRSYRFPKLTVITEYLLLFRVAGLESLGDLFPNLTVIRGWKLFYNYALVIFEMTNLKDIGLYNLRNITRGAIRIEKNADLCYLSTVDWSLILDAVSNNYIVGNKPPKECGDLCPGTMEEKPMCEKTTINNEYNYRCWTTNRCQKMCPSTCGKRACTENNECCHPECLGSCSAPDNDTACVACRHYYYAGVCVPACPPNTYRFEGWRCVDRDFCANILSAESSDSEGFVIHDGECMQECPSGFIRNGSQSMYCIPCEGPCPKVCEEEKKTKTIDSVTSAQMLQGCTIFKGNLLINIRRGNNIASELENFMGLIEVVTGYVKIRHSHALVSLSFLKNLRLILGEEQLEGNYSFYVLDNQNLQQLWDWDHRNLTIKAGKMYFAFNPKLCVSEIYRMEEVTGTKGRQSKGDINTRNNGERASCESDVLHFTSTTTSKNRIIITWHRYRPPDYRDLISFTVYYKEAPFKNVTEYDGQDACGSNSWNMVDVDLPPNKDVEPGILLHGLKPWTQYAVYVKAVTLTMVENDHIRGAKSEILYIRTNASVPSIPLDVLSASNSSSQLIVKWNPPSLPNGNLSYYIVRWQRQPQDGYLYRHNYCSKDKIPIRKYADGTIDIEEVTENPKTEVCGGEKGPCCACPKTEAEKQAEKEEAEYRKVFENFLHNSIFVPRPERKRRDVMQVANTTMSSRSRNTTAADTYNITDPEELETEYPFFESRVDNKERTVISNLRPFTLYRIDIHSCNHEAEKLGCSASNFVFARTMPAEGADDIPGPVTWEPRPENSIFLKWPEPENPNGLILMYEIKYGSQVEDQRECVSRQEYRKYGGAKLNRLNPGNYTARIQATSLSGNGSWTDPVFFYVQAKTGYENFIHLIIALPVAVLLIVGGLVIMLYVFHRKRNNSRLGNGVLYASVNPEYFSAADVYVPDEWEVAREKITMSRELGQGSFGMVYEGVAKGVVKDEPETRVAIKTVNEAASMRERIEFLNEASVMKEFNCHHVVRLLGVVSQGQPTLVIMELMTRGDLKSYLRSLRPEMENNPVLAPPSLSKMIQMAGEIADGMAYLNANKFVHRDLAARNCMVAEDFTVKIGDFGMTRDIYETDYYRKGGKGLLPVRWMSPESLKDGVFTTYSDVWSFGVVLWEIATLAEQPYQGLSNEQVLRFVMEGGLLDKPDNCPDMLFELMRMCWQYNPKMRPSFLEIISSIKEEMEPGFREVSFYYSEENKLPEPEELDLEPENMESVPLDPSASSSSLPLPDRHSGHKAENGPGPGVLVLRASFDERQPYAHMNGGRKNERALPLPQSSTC
Trk A, sequence (P04629 33-796): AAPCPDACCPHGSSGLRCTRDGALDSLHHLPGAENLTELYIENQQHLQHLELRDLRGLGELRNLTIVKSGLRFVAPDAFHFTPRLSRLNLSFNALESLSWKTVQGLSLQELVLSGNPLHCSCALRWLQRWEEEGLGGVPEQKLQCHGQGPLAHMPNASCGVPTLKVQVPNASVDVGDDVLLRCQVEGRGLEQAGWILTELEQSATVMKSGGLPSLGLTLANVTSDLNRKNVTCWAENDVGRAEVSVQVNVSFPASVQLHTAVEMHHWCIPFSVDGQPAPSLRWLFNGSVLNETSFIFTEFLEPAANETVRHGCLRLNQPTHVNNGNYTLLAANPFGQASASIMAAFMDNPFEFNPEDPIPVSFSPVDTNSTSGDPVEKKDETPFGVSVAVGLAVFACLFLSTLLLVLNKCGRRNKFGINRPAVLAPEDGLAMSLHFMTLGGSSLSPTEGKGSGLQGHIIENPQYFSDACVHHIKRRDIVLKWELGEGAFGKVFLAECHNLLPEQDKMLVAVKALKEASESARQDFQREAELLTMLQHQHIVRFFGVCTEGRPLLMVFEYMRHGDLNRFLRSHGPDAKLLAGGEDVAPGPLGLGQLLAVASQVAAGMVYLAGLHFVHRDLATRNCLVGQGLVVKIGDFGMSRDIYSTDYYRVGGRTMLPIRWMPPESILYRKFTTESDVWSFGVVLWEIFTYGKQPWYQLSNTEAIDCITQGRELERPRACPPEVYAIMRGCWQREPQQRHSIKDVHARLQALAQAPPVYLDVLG
T1 sequence (P06213 28-1382): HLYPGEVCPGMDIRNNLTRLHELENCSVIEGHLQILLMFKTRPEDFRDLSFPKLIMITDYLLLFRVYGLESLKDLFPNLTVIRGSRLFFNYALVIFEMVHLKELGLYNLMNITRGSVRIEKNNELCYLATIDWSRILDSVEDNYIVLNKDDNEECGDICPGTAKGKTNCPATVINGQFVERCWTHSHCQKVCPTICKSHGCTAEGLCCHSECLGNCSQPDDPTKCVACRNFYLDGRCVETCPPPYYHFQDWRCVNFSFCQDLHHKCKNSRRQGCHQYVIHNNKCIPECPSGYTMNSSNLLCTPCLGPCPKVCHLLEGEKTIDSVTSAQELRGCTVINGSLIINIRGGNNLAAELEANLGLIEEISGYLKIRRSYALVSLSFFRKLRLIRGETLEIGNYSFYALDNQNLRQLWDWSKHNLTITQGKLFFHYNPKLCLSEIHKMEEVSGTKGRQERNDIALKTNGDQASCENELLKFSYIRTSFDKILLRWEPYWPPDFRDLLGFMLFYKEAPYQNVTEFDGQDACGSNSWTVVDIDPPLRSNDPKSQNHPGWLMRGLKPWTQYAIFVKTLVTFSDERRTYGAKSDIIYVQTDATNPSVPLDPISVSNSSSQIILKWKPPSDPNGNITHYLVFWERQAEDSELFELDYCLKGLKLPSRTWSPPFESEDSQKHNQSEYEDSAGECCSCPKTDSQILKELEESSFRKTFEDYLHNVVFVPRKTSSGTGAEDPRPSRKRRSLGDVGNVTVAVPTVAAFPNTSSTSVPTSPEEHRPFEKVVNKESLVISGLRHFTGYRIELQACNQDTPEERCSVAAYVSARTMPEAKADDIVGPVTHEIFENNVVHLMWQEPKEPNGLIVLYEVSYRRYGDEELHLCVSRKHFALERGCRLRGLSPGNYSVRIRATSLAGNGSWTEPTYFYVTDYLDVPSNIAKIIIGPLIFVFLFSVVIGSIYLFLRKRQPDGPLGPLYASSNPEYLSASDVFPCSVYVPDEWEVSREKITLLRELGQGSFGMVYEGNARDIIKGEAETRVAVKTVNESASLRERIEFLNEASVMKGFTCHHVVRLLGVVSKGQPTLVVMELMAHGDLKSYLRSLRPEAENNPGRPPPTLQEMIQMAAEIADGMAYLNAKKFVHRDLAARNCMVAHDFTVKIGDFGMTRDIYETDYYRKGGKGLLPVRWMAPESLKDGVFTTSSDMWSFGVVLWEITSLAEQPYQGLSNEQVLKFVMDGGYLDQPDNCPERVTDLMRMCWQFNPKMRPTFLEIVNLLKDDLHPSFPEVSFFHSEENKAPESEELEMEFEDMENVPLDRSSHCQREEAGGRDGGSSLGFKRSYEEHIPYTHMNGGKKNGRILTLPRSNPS
Trk B, sequence (Q16620 32-822): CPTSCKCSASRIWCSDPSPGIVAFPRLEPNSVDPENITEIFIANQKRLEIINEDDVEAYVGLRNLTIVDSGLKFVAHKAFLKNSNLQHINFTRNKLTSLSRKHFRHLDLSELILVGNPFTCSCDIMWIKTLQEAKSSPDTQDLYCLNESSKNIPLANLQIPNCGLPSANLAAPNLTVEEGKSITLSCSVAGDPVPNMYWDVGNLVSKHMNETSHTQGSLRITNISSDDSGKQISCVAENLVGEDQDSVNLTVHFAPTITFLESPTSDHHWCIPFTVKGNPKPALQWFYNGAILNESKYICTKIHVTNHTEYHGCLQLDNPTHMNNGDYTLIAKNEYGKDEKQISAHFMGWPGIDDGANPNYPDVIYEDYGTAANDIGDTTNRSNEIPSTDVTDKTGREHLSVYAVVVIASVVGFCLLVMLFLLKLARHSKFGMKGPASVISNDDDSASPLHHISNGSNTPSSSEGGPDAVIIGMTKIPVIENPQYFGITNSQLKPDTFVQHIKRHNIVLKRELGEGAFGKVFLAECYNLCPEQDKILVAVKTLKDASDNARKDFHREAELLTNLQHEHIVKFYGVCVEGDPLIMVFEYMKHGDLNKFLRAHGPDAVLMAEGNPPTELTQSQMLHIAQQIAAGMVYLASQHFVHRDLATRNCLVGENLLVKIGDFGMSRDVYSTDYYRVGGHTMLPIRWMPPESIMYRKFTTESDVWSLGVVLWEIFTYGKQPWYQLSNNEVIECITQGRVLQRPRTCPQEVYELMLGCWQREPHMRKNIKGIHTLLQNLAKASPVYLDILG
Trk C, sequence (Q16288 32-839): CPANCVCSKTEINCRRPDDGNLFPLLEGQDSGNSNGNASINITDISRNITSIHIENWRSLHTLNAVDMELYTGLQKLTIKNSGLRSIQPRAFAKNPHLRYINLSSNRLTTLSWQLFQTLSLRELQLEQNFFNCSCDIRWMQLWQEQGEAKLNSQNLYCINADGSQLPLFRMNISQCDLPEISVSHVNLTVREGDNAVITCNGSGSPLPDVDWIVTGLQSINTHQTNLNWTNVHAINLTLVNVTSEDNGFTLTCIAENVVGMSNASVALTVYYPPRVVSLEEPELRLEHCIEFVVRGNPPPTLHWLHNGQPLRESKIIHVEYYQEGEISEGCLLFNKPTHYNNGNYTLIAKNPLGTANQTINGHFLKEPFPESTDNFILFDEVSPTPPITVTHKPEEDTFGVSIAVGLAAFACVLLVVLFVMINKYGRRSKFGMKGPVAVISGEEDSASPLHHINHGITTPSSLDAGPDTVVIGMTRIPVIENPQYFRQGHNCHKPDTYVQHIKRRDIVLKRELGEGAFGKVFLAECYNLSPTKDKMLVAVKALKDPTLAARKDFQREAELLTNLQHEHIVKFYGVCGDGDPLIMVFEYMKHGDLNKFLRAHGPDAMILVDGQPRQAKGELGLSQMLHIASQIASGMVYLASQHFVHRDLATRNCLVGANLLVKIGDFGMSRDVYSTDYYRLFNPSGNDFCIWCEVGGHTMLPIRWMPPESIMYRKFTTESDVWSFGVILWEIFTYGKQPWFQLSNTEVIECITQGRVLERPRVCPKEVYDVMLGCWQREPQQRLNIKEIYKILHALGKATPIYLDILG

`CC(C)c1cc(Nc2nc(N3CCC[C@H]3C(=O)N3CCC(F)(F)C3)nc3c2CCC3)n[nH]1` [111b, (S)-(3,3-difluoropyrrolidin-1-yl)(1-(4-((5-isopropyl-1H-pyrazol-3-yl)amino)-6,7-dihydro-5H-cyclopenta[d]pyrimidin-2-yl)pyrrolidin-2-yl)methanone]: the figures for the IC50 at Trk A, at Trk B and at Trk C were 53 nM, 2 nM and 0.7 nM, respectively. Besides, on activated IR, the inhibition – broadly, the relative decrease from the control value, in per cent – at 1 µM amounted to 35%.
As to `CN1CCN(C(=O)[C@H]2CCCN2c2nc3c(c(Nc4cc(C5CCCC5)n[nH]4)n2)CCC3)CC1=O` [136a, 4-[(2R)-1-[4-[(3-cyclopentyl-1H-pyrazol-5-yl)amino]-6,7-dihydro-5H-cyclopenta[d]pyrimidin-2-yl]pyrrolidine-2-carbonyl]-1-methyl-piperazin-2-one], the IC50 (commonly the concentration that inhibits the measured activity by half) on Trk A turned out to be 237 nM; on Trk B it was 113 nM; against Trk C, 83 nM. Besides, the inhibition at 1 µM on activated IGF-1R worked out at 72%; on activated IR, 64%.
For `CN(C)C(=O)[C@@H]1CCCN1c1nc2c(c(Nc3cc(C4CCOCC4)[nH]n3)n1)CCC2` [91b, (S)-N,N-dimethyl-1-(4-(5-(tetrahydro-2H-pyran-4-yl)-1H-pyrazol-3-ylamino)-6,7-dihydro-5H-cyclopenta[d]pyrimidin-2-yl)pyrrolidine-2-carboxamide], the half-maximal inhibitory concentration (IC50) against Trk A is 6310 nM; against Trk B it was 902 nM; against Trk C, 362 nM. Further, the inhibition at 1 µM at activated IGF-1R was found to be 0%; at activated IR, 1%. In addition, the inhibition at 3 µM against activated IGF-1R was 4%; against activated IR, -2%. Further, the inhibition at 10 µM against activated IGF-1R was -2%. Further, the results for the inhibition at 30 µM on activated IGF-1R and at activated IR were 21% and 7%, respectively.
On to `CC(C)c1cc(Nc2nc(N3CCC[C@@H]3C(=O)N3CCCC3)nc3c2CCC3)n[nH]1` [138a, (R)-(1-(4-((5-isopropyl-1H-pyrazol-3-yl)amino)-6,7-dihydro-5H-cyclopenta[d]pyrimidin-2-yl)pyrrolidin-2-yl)(pyrrolidin-1-yl)methanone], for which 878 nM corresponded to half-maximal inhibition against Trk A (IC50). Besides, the IC50 against Trk B amounted to 246 nM. At activated IGF-1R, the inhibition at 3 µM worked out at 62%, the inhibition at 10 µM was found to be 83% and the inhibition at 30 µM came to 95%. In addition, inhibition against Trk C was half-maximal at 105 nM (IC50). Also, at activated IR, the inhibition at 1 µM came to 37%, the inhibition at 3 µM was found to be 61% and the inhibition at 30 µM worked out at 96%.
Take `CC(C)c1cc(Nc2nc(N3CCC[C@H]3C(=O)N3CC(F)(F)C(F)(F)C3)nc3c2CCC3)n[nH]1` [112b, (S)-(1-(4-(5-isopropyl-1H-pyrazol-3-ylamino)-6,7-dihydro-5H-cyclopenta[d]pyrimidin-2-yl)pyrrolidin-2-yl)(3,3,4,4-tetrafluoropyrrolidin-1-yl)methanone]: the midpoint of inhibition at Trk A, the IC50, lay at 109 nM. The compound further came in with an IC50 against Trk B of 4 nM. Also, at activated IGF-1R, the inhibition at 3 µM came out at 36%, the inhibition at 10 µM came to 65% and the inhibition at 30 µM came out at 86%. At Trk C, this compound displayed an IC50 of 1.3 nM. For the same compound, at activated IR, the inhibition at 1 µM turned out to be 12%, the inhibition at 3 µM is 36% and the inhibition at 30 µM stood at 89%.
As to `CN1CCN(C(=O)[C@@H]2CCCN2c2nc3c(c(Nc4cc(C5CCCC5)[nH]n4)n2)CCC3)CC1` [134b, (S)-(1-(4-(5-cyclopentyl-1H-pyrazol-3-ylamino)-6,7-dihydro-5H-cyclopenta[d]pyrimidin-2-yl)pyrrolidin-2-yl)(4-methylpiperazin-1-yl)methanone], the IC50 came to 337 nM at Trk A, 31 nM on Trk B and 4.8 nM against Trk C. Besides, the inhibition at 1 µM against activated IGF-1R worked out at 16%; against activated IR, 26%. Also, the values for the inhibition at 3 µM against activated IGF-1R and against activated IR were 26% and 36%, respectively. At activated IGF-1R, the inhibition at 10 µM was 55%. Moreover, the inhibition at 30 µM against activated IGF-1R came to 77%; against activated IR, 85%.
On to `CC(C)c1cc(Nc2nc(N3CCC[C@H]3C(=O)N3CCCC3)nc3c2CCC3)n[nH]1` [138b, (S)-(1-(4-((5-isopropyl-1H-pyrazol-3-yl)amino)-6,7-dihydro-5H-cyclopenta[d]pyrimidin-2-yl)pyrrolidin-2-yl)(pyrrolidin-1-yl)methanone], for which the IC50 against Trk A stood at 141 nM; at Trk B, 5 nM; at Trk C, 1.4 nM. Besides, the inhibition at 3 µM against activated IGF-1R is 57%; at activated IR it was 46%. Besides, the inhibition at 10 µM on activated IGF-1R turned out to be 80%. In addition, the inhibition at 30 µM is 94% against activated IGF-1R and 92% against activated IR. Also, at activated IR, the inhibition at 1 µM worked out at 21%.
Regarding `CC(=O)N1CCN(C(=O)[C@@H]2CCCN2c2nc3c(c(Nc4cc(C5CCCC5)n[nH]4)n2)CCC3)CC1` [137b, 1-[4-[(2S)-1-[4-[(3-cyclopentyl-1H-pyrazol-5-yl)amino]-6,7-dihydro-5H-cyclopenta[d]pyrimidin-2-yl]pyrrolidine-2-carbonyl]piperazin-1-yl]ethanone], on Trk A, the IC50 turned out to be 1910 nM. For the same compound, the IC50 on Trk B is 265 nM. For the same compound, at activated IGF-1R, the inhibition at 1 µM worked out at 10%, the inhibition at 3 µM was -1%, the inhibition at 10 µM stood at 15% and the inhibition at 30 µM was 43%. On Trk C, this compound returned a half-maximal inhibitory concentration (IC50) of 110 nM. Further, on activated IR, the inhibition at 1 µM was found to be 19%, the inhibition at 3 µM amounted to 9% and the inhibition at 30 µM was determined as 60%.
For `O=C([C@H]1CCCN1c1nc2c(c(Nc3cc(C4CCCC4)[nH]n3)n1)CCC2)N1CC(F)(F)C(F)(F)C1` [110a, (R)-(1-(4-((5-cyclopentyl-1H-pyrazol-3-yl)amino)-6,7-dihydro-5H-cyclopenta[d]pyrimidin-2-yl)pyrrolidin-2-yl)(3,3,4,4-tetrafluoropyrrolidin-1-yl)methanone], on Trk A, the midpoint of inhibition, the IC50, lay at 189 nM. The same compound yielded an IC50 at Trk B of 171 nM. Also, at activated IGF-1R, the inhibition at 1 µM is 31%, the inhibition at 3 µM is 61%, the inhibition at 10 µM came to 83% and the inhibition at 30 µM worked out at 96%. On Trk C, this compound returned an IC50 of 80.4 nM. For the same compound, on activated IR, the inhibition at 1 µM is 32%, the inhibition at 3 µM is 64% and the inhibition at 30 µM was 97%.
Regarding `CC1(C)CCN(C(=O)[C@@H]2CCCN2c2nc3c(c(Nc4cc(C5CCCC5)n[nH]4)n2)CCC3)CC1` [135b, [(2S)-1-[4-[(3-cyclopentyl-1H-pyrazol-5-yl)amino]-6,7-dihydro-5H-cyclopenta[d]pyrimidin-2-yl]pyrrolidin-2-yl]-(4,4-dimethyl-1-piperidyl)methanone], the results for the IC50 on Trk A, against Trk B and at Trk C were 12 nM, 1 nM and 2.5 nM, respectively. Further, the inhibition at 1 µM against activated IGF-1R was 12%; on activated IR, 11%. Also, the inhibition at 3 µM on activated IGF-1R was found to be 14%; on activated IR, 26%. Also, the inhibition at 10 µM against activated IGF-1R was 43%. The inhibition at 30 µM worked out at 82% against activated IGF-1R and 88% against activated IR.
Take `CC(C)c1cc(Nc2nc(N3CCC[C@@H]3C(=O)N3CC(F)(F)C(F)(F)C3)nc3c2CCC3)n[nH]1` [112a, (R)-(1-(4-((5-isopropyl-1H-pyrazol-3-yl)amino)-6,7-dihydro-5H-cyclopenta[d]pyrimidin-2-yl)pyrrolidin-2-yl)(3,3,4,4-tetrafluoropyrrolidin-1-yl)methanone]: the 50% inhibitory concentration (IC50) was 670 nM against Trk A, 628 nM on Trk B and 279 nM against Trk C. For the same compound, the inhibition at 1 µM at activated IR came to 35%.
In the case of `CC(C)c1cc(Nc2nc(N3CCC[C@@H]3C(=O)N3CCC(F)(F)C3)nc3c2CCC3)n[nH]1` [139a, (R)-(3,3-difluoropyrrolidin-1-yl)(1-(4-((5-isopropyl-1H-pyrazol-3-yl)amino)-6,7-dihydro-5H-cyclopenta[d]pyrimidin-2-yl)pyrrolidin-2-yl)methanone], the 50% inhibitory concentration (IC50) worked out at 669 nM against Trk A, 258 nM against Trk B and 144 nM on Trk C. In addition, the inhibition at 1 µM at activated IR stood at 42%.
